According to ChEMBL document CHEMBL5303573, “Mapping human microbiome drug metabolism by gut bacteria and their genes” (Nature, 2019):

Key:
[1] = The drug is tested on Bifidobacterium breve strain: DSM20213 for biotransformation. The drug concentrations were measured before and after a 12-h incubation by liquid-chromatography-coupled mass spectrometry (LC–MS); conditions: 2 µM
[2] = The drug is tested on Eggerthella lenta strain: ATCC25559 for biotransformation. The drug concentrations were measured before and after a 12-h incubation by liquid-chromatography-coupled mass spectrometry (LC–MS); conditions: 2 µM
[3] = The drug is tested on Bacteroides cellulosilyticus strain: DSM14838 for biotransformation. The drug concentrations were measured before and after a 12-h incubation by liquid-chromatography-coupled mass spectrometry (LC–MS); conditions: 2 µM
[4] = The drug is tested on Bacteroides fragilis strain: HMW615 for biotransformation. The drug concentrations were measured before and after a 12-h incubation by liquid-chromatography-coupled mass spectrometry (LC–MS); conditions: 2 µM
[5] = The drug is tested on Bacteroides sp. WH2 strain: WH2 for biotransformation. The drug concentrations were measured before and after a 12-h incubation by liquid-chromatography-coupled mass spectrometry (LC–MS); conditions: bacteroides sp. wh2, 12 h, 2 µM
[6] = The drug is tested on Odoribacter splanchnicus strain: fecal isolate for biotransformation. The drug concentrations were measured before and after a 12-h incubation by liquid-chromatography-coupled mass spectrometry (LC–MS); conditions: 2 µM
[7] = The drug is tested on Anaerotruncus colihominis strain: DSM17241 for biotransformation. The drug concentrations were measured before and after a 12-h incubation by liquid-chromatography-coupled mass spectrometry (LC–MS); conditions: 2 µM
[8] = The drug is tested on Clostridium asparagiforme strain: DSM15981 for biotransformation. The drug concentrations were measured before and after a 12-h incubation by liquid-chromatography-coupled mass spectrometry (LC–MS); type: ADME; parameters: dose 2 uM, timepoint 0 vs 12 hours; conditions: enterocloster asparagiformis, 2 µM
[9] = The drug is tested on Clostridium scindens strain: ATCC35704 for biotransformation. The drug concentrations were measured before and after a 12-h incubation by liquid-chromatography-coupled mass spectrometry (LC–MS); conditions: 2 µM
[10] = The drug is tested on Eubacterium hallii strain: DSM3353 for biotransformation. The drug concentrations were measured before and after a 12-h incubation by liquid-chromatography-coupled mass spectrometry (LC–MS); conditions: anaerobutyricum hallii, 2 µM
[11] = The drug is tested on Eubacterium rectale strain: ATCC33656 for biotransformation. The drug concentrations were measured before and after a 12-h incubation by liquid-chromatography-coupled mass spectrometry (LC–MS); conditions: agathobacter rectalis, 2 µM
[12] = The drug is tested on Eubacterium ventriosum strain: ATCC27560 for biotransformation. The drug concentrations were measured before and after a 12-h incubation by liquid-chromatography-coupled mass spectrometry (LC–MS); type: ADME; parameters: dose 2 uM, timepoint 0 vs 12 hours; conditions: 2 µM
[13] = The drug is tested on Ruminococcus lactaris strain: ATCC29176 for biotransformation. The drug concentrations were measured before and after a 12-h incubation by liquid-chromatography-coupled mass spectrometry (LC–MS); conditions: 2 µM
[14] = bifidobacterium adolescentis, 12 h, 2 µM
Description: The drug is tested on Bifidobacterium adolescentis strain: ATCC 15703 for biotransformation. The drug concentrations were measured before and after a 12-h incubation by liquid-chromatography-coupled mass spectrometry (LC–MS)

[15] = bacteroides eggerthii, 12 h, 2 µM
Description: The drug is tested on Bacteroides eggerthii strain: DSM20697 for biotransformation. The drug concentrations were measured before and after a 12-h incubation by liquid-chromatography-coupled mass spectrometry (LC–MS)

[16] = bacteroides stercoris, 12 h, 2 µM
Description: The drug is tested on Bacteroides stercoris strain: ATCC43183 for biotransformation. The drug concentrations were measured before and after a 12-h incubation by liquid-chromatography-coupled mass spectrometry (LC–MS)

[17] = enterocloster bolteae, 12 h, 2 µM
Description: The drug is tested on Clostridium bolteae strain: ATCCBAA-613 for biotransformation. The drug concentrations were measured before and after a 12-h incubation by liquid-chromatography-coupled mass spectrometry (LC–MS)

[18] = limosilactobacillus reuteri cf48-3a, 12 h, 2 µM
Description: The drug is tested on Lactobacillus reuteri CF48-3A strain: BEI HM-102 for biotransformation. The drug concentrations were measured before and after a 12-h incubation by liquid-chromatography-coupled mass spectrometry (LC–MS)

[19] = The drug is tested on Bacteroides xylanisolvens strain: DSM18836 for biotransformation. The drug concentrations were measured before and after a 12-h incubation by liquid-chromatography-coupled mass spectrometry (LC–MS); conditions: 2 µM
[20] = The drug is tested on Bacteroides fragilis strain: ATCC43859 for biotransformation. The drug concentrations were measured before and after a 12-h incubation by liquid-chromatography-coupled mass spectrometry (LC–MS); conditions: 2 µM

## OC(CCN1CCCCC1)(c1ccccc1)C1CC2C=CC1C2 (centres undefined) [BIPERIDEN]
[1]
  Bacterial Biotransformation: Compound NOT metabolized
[2]
  Bacterial Biotransformation: Compound NOT metabolized
[3]
  Bacterial Biotransformation: Compound NOT metabolized
[4]
  Bacterial Biotransformation: Compound NOT metabolized
[5]
  Bacterial Biotransformation: Compound NOT metabolized
[6]
  Bacterial Biotransformation: Compound NOT metabolized
[7]
  Bacterial Biotransformation: Compound NOT metabolized
[8]
  Bacterial Biotransformation: Compound NOT metabolized
[9]
  Bacterial Biotransformation: Compound NOT metabolized
[10]
  Bacterial Biotransformation: Compound NOT metabolized
[11]
  Bacterial Biotransformation: Compound NOT metabolized
[12]
  Bacterial Biotransformation: Compound NOT metabolized
[13]
  Bacterial Biotransformation: Compound NOT metabolized
[14]
  Bacterial Biotransformation: Compound NOT metabolized
[15]
  Bacterial Biotransformation: Compound NOT metabolized
[16]
  Bacterial Biotransformation: Compound NOT metabolized
[17]
  Bacterial Biotransformation: Compound NOT metabolized
[18]
  Bacterial Biotransformation: Compound NOT metabolized

## CC(NC(C)(C)C)C(=O)c1cccc(Cl)c1 (centres undefined) [BUPROPION]
[1]
  Bacterial Biotransformation: Compound NOT metabolized
[2]
  Bacterial Biotransformation: Compound NOT metabolized
[3]
  Bacterial Biotransformation: Compound NOT metabolized
[4]
  Bacterial Biotransformation: Compound NOT metabolized
[5]
  Bacterial Biotransformation: Compound NOT metabolized
[19]
  Bacterial Biotransformation: Compound NOT metabolized
[6]
  Bacterial Biotransformation: Compound metabolized
[7]
  Bacterial Biotransformation: Compound NOT metabolized
[8]
  Bacterial Biotransformation: Compound NOT metabolized
[9]
  Bacterial Biotransformation: Compound NOT metabolized
[10]
  Bacterial Biotransformation: Compound NOT metabolized
[13]
  Bacterial Biotransformation: Compound NOT metabolized
[15]
  Bacterial Biotransformation: Compound metabolized
[16]
  Bacterial Biotransformation: Compound NOT metabolized
[17]
  Bacterial Biotransformation: Compound NOT metabolized
[18]
  Bacterial Biotransformation: Compound NOT metabolized

## CC(C)NCC(O)COc1ccc(CCOCC2CC2)cc1 (centres undefined) [BETAXOLOL]
[1]
  Bacterial Biotransformation: Compound NOT metabolized
[2]
  Bacterial Biotransformation: Compound NOT metabolized
[4]
  Bacterial Biotransformation: Compound NOT metabolized
[20]
  Bacterial Biotransformation: Compound NOT metabolized
[5]
  Bacterial Biotransformation: Compound NOT metabolized
[6]
  Bacterial Biotransformation: Compound NOT metabolized
[7]
  Bacterial Biotransformation: Compound NOT metabolized
[8]
  Bacterial Biotransformation: Compound NOT metabolized
[9]
  Bacterial Biotransformation: Compound NOT metabolized
[10]
  Bacterial Biotransformation: Compound NOT metabolized
[11]
  Bacterial Biotransformation: Compound NOT metabolized
[12]
  Bacterial Biotransformation: Compound NOT metabolized
[13]
  Bacterial Biotransformation: Compound NOT metabolized
[14]
  Bacterial Biotransformation: Compound NOT metabolized
[15]
  Bacterial Biotransformation: Compound NOT metabolized
[16]
  Bacterial Biotransformation: Compound NOT metabolized
[17]
  Bacterial Biotransformation: Compound NOT metabolized
[18]
  Bacterial Biotransformation: Compound NOT metabolized

## CN(C)C(=O)Oc1cc(OC(=O)N(C)C)cc(C(O)CNC(C)(C)C)c1 (centres undefined) [BAMBUTEROL]
[1]
  Bacterial Biotransformation: Compound NOT metabolized
[2]
  Bacterial Biotransformation: Compound NOT metabolized
[4]
  Bacterial Biotransformation: Compound NOT metabolized
[20]
  Bacterial Biotransformation: Compound NOT metabolized
[5]
  Bacterial Biotransformation: Compound NOT metabolized
[19]
  Bacterial Biotransformation: Compound NOT metabolized
[6]
  Bacterial Biotransformation: Compound NOT metabolized
[7]
  Bacterial Biotransformation: Compound NOT metabolized
[8]
  Bacterial Biotransformation: Compound NOT metabolized
[9]
  Bacterial Biotransformation: Compound NOT metabolized
[10]
  Bacterial Biotransformation: Compound NOT metabolized
[11]
  Bacterial Biotransformation: Compound NOT metabolized
[12]
  Bacterial Biotransformation: Compound NOT metabolized
[13]
  Bacterial Biotransformation: Compound NOT metabolized
[14]
  Bacterial Biotransformation: Compound NOT metabolized
[15]
  Bacterial Biotransformation: Compound NOT metabolized
[16]
  Bacterial Biotransformation: Compound NOT metabolized
[17]
  Bacterial Biotransformation: Compound NOT metabolized
[18]
  Bacterial Biotransformation: Compound NOT metabolized

## CN1C(=O)CCS(=O)(=O)C1c1ccc(Cl)cc1 (centres undefined) [CHLORMEZANONE]
[1]
  Bacterial Biotransformation: Compound NOT metabolized
[2]
  Bacterial Biotransformation: Compound NOT metabolized
[3]
  Bacterial Biotransformation: Compound NOT metabolized
[4]
  Bacterial Biotransformation: Compound NOT metabolized
[19]
  Bacterial Biotransformation: Compound NOT metabolized
[6]
  Bacterial Biotransformation: Compound NOT metabolized
[7]
  Bacterial Biotransformation: Compound NOT metabolized
[8]
  Bacterial Biotransformation: Compound metabolized
[9]
  Bacterial Biotransformation: Compound NOT metabolized
[10]
  Bacterial Biotransformation: Compound NOT metabolized
[12]
  Bacterial Biotransformation: Compound NOT metabolized
[14]
  Bacterial Biotransformation: Compound NOT metabolized
[15]
  Bacterial Biotransformation: Compound NOT metabolized
[17]
  Bacterial Biotransformation: Compound NOT metabolized
[18]
  Bacterial Biotransformation: Compound NOT metabolized

## CCCC(=O)Nc1ccc(OCC(O)CNC(C)C)c(C(C)=O)c1 (centres undefined) [ACEBUTOLOL]
[1]
  Bacterial Biotransformation: Compound NOT metabolized
[2]
  Bacterial Biotransformation: Compound NOT metabolized
[3]
  Bacterial Biotransformation: Compound NOT metabolized
[5]
  Bacterial Biotransformation: Compound NOT metabolized
[19]
  Bacterial Biotransformation: Compound NOT metabolized
[6]
  Bacterial Biotransformation: Compound NOT metabolized
[7]
  Bacterial Biotransformation: Compound NOT metabolized
[8]
  Bacterial Biotransformation: Compound NOT metabolized
[9]
  Bacterial Biotransformation: Compound NOT metabolized
[10]
  Bacterial Biotransformation: Compound NOT metabolized
[11]
  Bacterial Biotransformation: Compound NOT metabolized
[12]
  Bacterial Biotransformation: Compound NOT metabolized
[13]
  Bacterial Biotransformation: Compound NOT metabolized
[14]
  Bacterial Biotransformation: Compound NOT metabolized
[15]
  Bacterial Biotransformation: Compound NOT metabolized
[16]
  Bacterial Biotransformation: Compound NOT metabolized
[17]
  Bacterial Biotransformation: Compound NOT metabolized
[18]
  Bacterial Biotransformation: Compound NOT metabolized

## CN1C[C@H](C(=O)N[C@]2(C)O[C@@]3(O)[C@@H]4CCCN4C(=O)[C@H](Cc4ccccc4)N3C2=O)C=C2c3cccc4[nH]cc(c34)C[C@H]21.CN1C[C@H](C(=O)N[C@]2(C)O[C@@]3(O)[C@@H]4CCCN4C(=O)[C@H](Cc4ccccc4)N3C2=O)C=C2c3cccc4[nH]cc(c34)C[C@H]21.O=C(O)C(O)C(O)C(=O)O [ERGOTAMINE TARTRATE]
[1]
  Bacterial Biotransformation: Compound metabolized
[2]
  Bacterial Biotransformation: Compound NOT metabolized
[3]
  Bacterial Biotransformation: Compound metabolized
[5]
  Bacterial Biotransformation: Compound metabolized
[19]
  Bacterial Biotransformation: Compound metabolized
[6]
  Bacterial Biotransformation: Compound metabolized
[7]
  Bacterial Biotransformation: Compound metabolized
[8]
  Bacterial Biotransformation: Compound metabolized
[9]
  Bacterial Biotransformation: Compound metabolized
[10]
  Bacterial Biotransformation: Compound metabolized
[12]
  Bacterial Biotransformation: Compound NOT metabolized
[13]
  Bacterial Biotransformation: Compound metabolized
[14]
  Bacterial Biotransformation: Compound metabolized
[15]
  Bacterial Biotransformation: Compound metabolized
[16]
  Bacterial Biotransformation: Compound metabolized
[17]
  Bacterial Biotransformation: Compound metabolized
[18]
  Bacterial Biotransformation: Compound metabolized

## Cc1nc2n(c(=O)c1CCN1CCC(c3noc4cc(F)ccc34)CC1)CCCC2O (centres undefined) [PALIPERIDONE]
[1]
  Bacterial Biotransformation: Compound metabolized
[2]
  Bacterial Biotransformation: Compound NOT metabolized
[3]
  Bacterial Biotransformation: Compound metabolized
[4]
  Bacterial Biotransformation: Compound NOT metabolized
[5]
  Bacterial Biotransformation: Compound NOT metabolized
[19]
  Bacterial Biotransformation: Compound metabolized
[6]
  Bacterial Biotransformation: Compound metabolized
[7]
  Bacterial Biotransformation: Compound metabolized
[8]
  Bacterial Biotransformation: Compound metabolized
[9]
  Bacterial Biotransformation: Compound metabolized
[10]
  Bacterial Biotransformation: Compound metabolized
[11]
  Bacterial Biotransformation: Compound metabolized
[13]
  Bacterial Biotransformation: Compound metabolized
[14]
  Bacterial Biotransformation: Compound NOT metabolized
[15]
  Bacterial Biotransformation: Compound metabolized
[16]
  Bacterial Biotransformation: Compound metabolized
[17]
  Bacterial Biotransformation: Compound metabolized
[18]
  Bacterial Biotransformation: Compound NOT metabolized
